Results on seven molecules are retold here after publication PMC5662223, “Biophysical and functional characterization of the N-terminal domain of the cat T1R1 umami taste receptor expressed in Escherichia coli” (PLoS ONE, 2017).

Assay [1] addresses cT1R1-NTD (N-terminal domain of the cat T1R1 taste receptor) (Felis catus, UniProt A0ABI7Z2I4). The assay is described as follows: Ligand binding assay by intrinsic tryptophan fluorescence of refolded cT1R1-NTD. The note with it: for synergetic effect of IMP on L-amino acid binding (shift of binding curve): 0.3 μM IMP final concentration; for maximal amplitude of cT1R1-NTD fluorescence induced by the amino acid in presence of IMP: compared to the other tested L-amino acids. As for the experimental part: The intrinsic fluorescence of cT1R1-NTD was measured as previously described by Nie et al. using a Cary Eclipse spectrofluorometer (Varian Instruments) equipped with a Peltier temperature control unit. Sample proteins were excited at 295 nm and emission spectra were recorded from 300 to 400 nm, with 5-nm and 10-nm bandwidth for emission and excitation, respectively. For titration experiments, fluorescence spectra were recorded using 0.5 μM protein solution in 50 mM Tris-HCl pH 8.0, 150 mM NaCl, 1mM DTT and 0.1 mM DDM. Ligand solutions were freshly prepared in the same buffer. Successive aliquots of potential ligands were added to 400 μL of cT1R1-NTD solution. The temperature was kept constant at 20°C. Fluorescence measurements were corrected for dilution, bleaching and nonspecific buffer quenching. Kd values and standard errors were calculated from a plot of the ratio between the fluorescence intensity variation and the maximum of fluorescence intensity variation versus concentration of total ligand, obtained with a standard non-linear regression method and using one site saturation ligand binding equation using SigmaPlot software. […] The Kd values of ligand-receptor interactions were determined using Eq (1) ΔF/ΔFmax = Bmax×[L]/(Kd+[L]) (1) Where Kd value is the apparent dissociation constant, ΔF is the difference between the fluorescence intensity at a given concentration of ligand and the fluorescence intensity in the absence of ligand, and ΔFmax is the difference at infinite ligand concentration [L], Bmax is the maximum fluorescence signal, [L] corresponds to the concentration of ligands. The reported Kd values are the average of more than nine measurements performed on at least three independently refolded protein samples. […] Statistical analyses: Dunnett’s test was used to determine the statistical significance between data means.

The next assay addresses human T1R3-NTD. Also noted: method as in PMID 22450161, PMID 22909933. The note with it: cited from earlier work.
Where [2] appears, read: ligand alone, no IMP, Fig 6: 100 μM final concentration, excitation 295 nm, emission 340 nm.

“Also recorded” adds a separate entry of the source.

Chain of cT1R1-NTD (N-terminal domain of the cat T1R1 taste receptor) (A0ABI7Z2I4 entry or part of it): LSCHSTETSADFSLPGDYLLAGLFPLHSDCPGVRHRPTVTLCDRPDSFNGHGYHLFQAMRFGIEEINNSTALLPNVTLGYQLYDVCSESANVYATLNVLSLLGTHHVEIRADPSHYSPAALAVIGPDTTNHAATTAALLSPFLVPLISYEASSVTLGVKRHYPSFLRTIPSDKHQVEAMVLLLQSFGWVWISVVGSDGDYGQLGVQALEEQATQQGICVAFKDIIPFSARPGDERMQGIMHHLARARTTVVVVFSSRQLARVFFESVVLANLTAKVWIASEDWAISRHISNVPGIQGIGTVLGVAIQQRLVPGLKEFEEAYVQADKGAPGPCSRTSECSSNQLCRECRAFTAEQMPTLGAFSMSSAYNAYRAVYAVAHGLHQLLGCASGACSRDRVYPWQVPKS

With `Nc1nc2c(ncn2[C@@H]2O[C@H](COP(=O)(O)O)[C@@H](O)[C@H]2O)c(=O)[nH]1` [GMP, guanosine-5’-monophosphate], the “effect on cT1R1-NTD intrinsic fluorescence” value in assay [1] (GMP alone at low concentrations (below 1 μM)) was “fluorescence enhancement”.

For the molecule `C[C@H](N)C(=O)O` [L-Ala, L-alanine], in assay [1], the “synergetic effect of IMP on L-amino acid binding (shift of binding curve)” value (“synergetic effect … (shift of binding curve)” below) is given as “relatively modest”. Also, the “effect on cT1R1-NTD intrinsic fluorescence” value in assay [1] (setting [2]) is “saturable intrinsic fluorescent enhancement”.

On to `N=C(N)NCCC[C@H](N)C(=O)O` [L-Arg], for which the “synergetic effect … (shift of binding curve)” value in assay [1] is on record as “relatively modest”. In addition, in assay [1] (0.3 μM IMP), the “maximal amplitude of cT1R1-NTD fluorescence induced by the amino acid in presence of IMP” value is on record as “increased”. Moreover, the “effect on cT1R1-NTD intrinsic fluorescence” value in assay [1] (setting [2]) is on record as “saturable intrinsic fluorescent enhancement”.

On to `N[C@@H](CS)C(=O)O` [L-Cys], for which the “fluorescence enhancement of cT1R1-NTD generated by 0.3 μM IMP in the presence of the amino acid” value in assay [1] (0.3 μM IMP, compared with absence of L-Cys) is reported as “not significantly different”. Further, the “effect on cT1R1-NTD intrinsic fluorescence” value in assay [1] (setting [2]) is “no effect; also recorded: does not affect cT1R1-NTD fluorescence”.

`N[C@@H](Cc1c[nH]cn1)C(=O)O` [L-His, L-histidine]: the “synergetic effect … (shift of binding curve)” value in assay [1] is listed as “more pronounced”. In addition, the “maximal amplitude of cT1R1-NTD fluorescence induced by the amino acid in presence of IMP” value in assay [1] (0.3 μM IMP) is reported as “increased”. Also, the “effect on cT1R1-NTD intrinsic fluorescence” value in assay [1] (setting [2]) was “saturable intrinsic fluorescent enhancement”.

`CC[C@H](C)[C@H](N)C(=O)O` [L-Ile]: the “synergetic effect … (shift of binding curve)” value in assay [1] is reported as “relatively modest”. In assay [1] (setting [2]), the “effect on cT1R1-NTD intrinsic fluorescence” value is given as “saturable intrinsic fluorescent enhancement”.

Regarding `OC[C@H]1O[C@H](O[C@]2(CCl)O[C@H](CCl)[C@@H](O)[C@@H]2O)[C@H](O)[C@@H](O)[C@H]1Cl` [sucralose], the binding affinity result at human T1R3-NTD is “millimolar range”.
